Results reported in patent publication US20260242398A1, “BENZOPYRIMIDIN-4(3H)-ONES AS PI3K INHIBITORS” (OnKure, Inc., priority 2022, published 2026).
pEC50, pIC50: −log10 of the molar value. Where two headings read alike, the source gives them in different places.

How the values were obtained:
[1] = system: phosphorylation of AKT (pAKT) in SKBR3 cells express WT PI3Ka; assay: In vitro cell pAKT (Ser473) HTRF, SKBR3 cells; format: cell-based; conditions: Homo sapiens, SK-BR-3, 6 h, inhibition of pAKT
Method in brief: (§1)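 T47D (PI3Kα H1047R; RPMI, 10% FBS, insulin) or SKBR3 (WT PI3Kα; McCoy's 5a, 10% FBS) cells, 5000/well, are treated with 10-point compound dilutions for 6 h at 37° C. Lysates are read for pAKT Ser473 by HTRF. Inhibition is normalised to DMSO (0%) and 10 μM alpelisib (100%), and IC50 comes from a four-parameter fit.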

[2] = system: T47D cells expressing mutant PI3Ka (H1047R); assay: In vitro cell proliferation (CellTiter-Glo, 72 hours), T47D cells; format: cell-based; conditions: inhibition of proliferation, read-out: Avg T-47D EC50
Method in brief: (§2)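 1,500 cells/well (T47D in RPMI/10% FBS/insulin 0.2 units/mL; SKBR3 in McCoys 5a/10% FBS) plated onto 10-point compound dilutions and grown 72 h at 37 °C, 5% CO2; CellTiter-Glo luminescence. Inhibition scaled between 0.1% DMSO and 10 uM alpelisib; EC50 from four-parameter logistic fit.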

[3] = system: phosphorylation of AKT (pAKT) in T47D cells expressing mutant PI3Ka (H1047R); assay: In vitro cell pAKT (Ser473) HTRF, T47D cells; format: cell-based; conditions: inhibition of pAKT, 6 hour, read-out: Avg T-47D IC50
Method in brief: as §1

[4] = system: SKBR3 cells express WT PI3Ka; assay: In vitro cell proliferation (CellTiter-Glo, 72 hours), SKBR3 cells; format: cell-based; conditions: Homo sapiens, SK-BR-3, 72 h, inhibition of proliferation
Method in brief: as §2

[5] = Mouse pharmacokinetics, single IV or PO dose, plasma LC/MS/MS; format: in vivo; conditions: CD1 mice; for PK-Mouse: PO F: PO 10 mg/kg vs IV 1 mg/kg; for AUC(0-t) / clearance: mouse, plasma; for clearance: read-out: PK-Mouse: IV Cl
Description: CD1 mice were dosed with a single IV or PO dose, followed by serial sampling of plasma at 0.0833 (IV only), 0.25, 0.5, 1, 2, 4, 8, 24 hours post dose. Desired serial concentrations of working solutions were achieved by diluting stock solution of analyte with 50% acetonitrile in water solution. 10 μL of working solutions (0.5, 1, 2, 5, 10, 50, 100, 500, 1000 ng/mL) were added to 10 μL of the blank Female CD1 Mouse plasma to achieve calibration standards of 0.5~1000 ng/mL (0.5, 1, 2, 5, 10, 50, 100, 500, 1000 ng/mL) in a total volume of […]. Five quality control samples at 1 ng/mL, 2 ng/mL, 5 ng/mL, 50 ng/mL and 800 ng/mL for plasma were prepared independently of those used for the calibration curves. These QC samples were prepared on the day of analysis in the same way as calibration standards. 20 μL standards, 20 μL QC samples and 20 μL unknown samples (10 μL plasma with 10 μL blank solution) were added to 200 μL of acetonitrile containing IS mixture for precipitating protein respectively. Then the samples were vortexed for 30 s. after centrifugation at 4° Celsius, 4000 rpm for 15 min. The supernatant was diluted with water at a ratio of 1:2 (V/V, 1:2), Then 5 μL of diluted supernatant was injected into the LC/MS/MS system for quantitative analysis.

[6] = IV 1 mg/kg, solution in 20% PEG400/20% PG/60% of 20% HPBCD solution in water, read-out: PK-Mouse: IV AUC last
[7] = IV 1 mg/kg, solution in 20% PEG400/20% PG/60% of 20% HPBCD solution in water
[8] = PO 10 mg/kg, suspension in 30% SBEβCD in water, read-out: PK-Mouse PO AUC last

pIC50 [1] | pEC50 [2] | pIC50 [3] | pEC50 [4] | PK-Mouse: PO F [5] [%] | AUC(0-t) [5, 6] [ng·h/mL] | clearance [5, 7] [mL/min/kg] | AUC(0-t) [5, 8] [ng·h/mL] | SMILES
< 4.82 | 6.30 to 9.00 | 6.00 to 9.00 | 4.82 to 5.70 | 61 | 1740 | 8.7 | 10700 | Cc1cc(C(C)Nc2ccc(F)cc2C(=O)O)c2nc(N3CCC(C)(C)CC3)n(C)c(=O)c2c1 (single isomer, unassigned) [Example 29, 2-((1-(2-(4,4-dimethylpiperidin-1-yl)-3,6-dimethyl-4-oxo-3,4-dihydroquinazolin-8-yl)ethyl)amino)-5-fluorobenzoic acid]
< 4.82 | 5.70 to 6.30 | 6.00 to 9.00 | < 4.82 | 187 | 242 | 59.5 | 4520 | CC(Nc1ccccc1C(=O)O)c1cc(F)cc2c(=O)n(C)c(N3CCN(CC(F)(F)F)CC3)nc12 (single isomer, unassigned) [Example 35, 2-((1-(6-fluoro-3-methyl-4-oxo-2-(4-(2,2,2-trifluoroethyl)piperazin-1-yl)-3,4-dihydroquinazolin-8-yl)ethyl)amino)benzoic acid]
